In the supplement of paper PMC10307832:

Columns and labels:
Assay in all cases: relative viability (nuclei count vs DMSO), 5 days (fraction); higher = more cells survive
Alisertib + Palbociclib = compound: COc1cc(Nc2ncc3c(n2)-c2ccc(Cl)cc2C(c2c(F)cccc2OC)=NC3)ccc1C(=O)O [Alisertib] + CC(=O)c1c(C)c2cnc(Nc3ccc(N4CCNCC4)cn3)nc2n(C2CCCC2)c1=O [Palbociclib] (partner 0.5 µM)
In short: (§1)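 Relative viability was taken as the ratio of nuclei in treated wells to nuclei in vehicle wells. Lung cancer cell lines in 1536-well plates received compounds by pin tool one day after seeding, either one drug alone or a fixed anchor-drug dose plus five library-drug doses (not always all listed) in √10 steps. Nuclei were counted on 4× images after 5 days of treatment, and values are medians of duplicate plates.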

Alisertib + OSI-027 = compound: COc1cc(Nc2ncc3c(n2)-c2ccc(Cl)cc2C(c2c(F)cccc2OC)=NC3)ccc1C(=O)O [Alisertib] + COc1cccc2cc(-c3nc([C@H]4CC[C@H](C(=O)O)CC4)n4ncnc(N)c34)[nH]c12 [OSI-027] (partner 0.5 µM)
In short: as §1

Alisertib + Foretinib = compound: COc1cc(Nc2ncc3c(n2)-c2ccc(Cl)cc2C(c2c(F)cccc2OC)=NC3)ccc1C(=O)O [Alisertib] + COc1cc2c(Oc3ccc(NC(=O)C4(C(=O)Nc5ccc(F)cc5)CC4)cc3F)ccnc2cc1OCCCN1CCOCC1 [Foretinib] (partner 0.25 µM)
In short: as §1

Alisertib = compound: COc1cc(Nc2ncc3c(n2)-c2ccc(Cl)cc2C(c2c(F)cccc2OC)=NC3)ccc1C(=O)O [Alisertib]
In short: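 Five library-drug doses, separated by factors of √10, were pinned into 1536-well plates holding lung cancer cell lines after an overnight stay at 37 °C. Cells were fixed, permeabilised and Hoechst-stained in one step after 5 days without medium change, then imaged at 4×. Viability compares treated-well with vehicle-well nuclei, counted in MetaXpress, as a median across plates. Passing plates had control CV below 25% and at least one doubling.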

Row | Cell Line | relative viability (Alisertib + Palbociclib; first compound 0.005 µM) | relative viability (Alisertib + Palbociclib; first compound 0.01581 µM) | relative viability (Alisertib + Palbociclib; first compound 0.05 µM) | relative viability (Alisertib + Palbociclib; first compound 0.1581 µM) | relative viability (Alisertib + Palbociclib; first compound 0.5 µM) | relative viability (Alisertib + OSI-027; first compound 0.005 µM) | relative viability (Alisertib + OSI-027; first compound 0.01581 µM) | relative viability (Alisertib + OSI-027; first compound 0.05 µM) | relative viability (Alisertib + OSI-027; first compound 0.1581 µM) | relative viability (Alisertib + OSI-027; first compound 0.5 µM) | relative viability (Alisertib + Foretinib; first compound 0.005 µM) | relative viability (Alisertib + Foretinib; first compound 0.01581 µM) | relative viability (Alisertib + Foretinib; first compound 0.05 µM) | relative viability (Alisertib + Foretinib; first compound 0.1581 µM) | relative viability (Alisertib + Foretinib; first compound 0.5 µM) | relative viability (Alisertib; 0.005 µM) | relative viability (Alisertib; 0.01581 µM) | relative viability (Alisertib; 0.05 µM) | relative viability (Alisertib; 0.1581 µM) | relative viability (Alisertib; 0.5 µM)
1 | 201T | 0.351 | 0.33 | 0.327 | 0.28 | 0.24 | 0.712 | 0.762 | 0.632 | 0.249 | 0.126 | 1.14 | 0.997 | 1.02 | 0.453 | 0.271 | 0.985 | 0.964 | 0.966 | 0.466 | 0.386
2 | A-427 | 0.493 | 0.444 | 0.255 | 0.276 | 0.24 | 0.406 | 0.291 | 0.13 | 0.162 | 0.133 | 0.877 | 0.777 | 0.197 | 0.182 | 0.178 | 0.798 | 0.681 | 0.333 | 0.231 | 0.19
3 | ABC-1 | 0.697 | 0.661 | 0.67 | 0.371 | 0.316 | 0.42 | 0.375 | 0.339 | 0.195 | 0.185 | 1.08 | 1.06 | 0.58 | 0.344 | 0.22 | 0.794 | 0.845 | 0.787 | 0.286 | 0.293
4 | BEN | 0.45 | 0.444 | 0.348 | 0.327 | 0.384 | 0.296 | 0.265 | 0.24 | 0.217 | 0.158 | 0.486 | 0.57 | 0.277 | 0.213 | 0.21 | 0.88 | 0.812 | 0.374 | 0.234 | 0.209
5 | CAL-12T | 0.327 | 0.259 | 0.188 | 0.138 | 0.172 | 0.488 | 0.277 | 0.137 | 0.165 | 0.118 | 0.995 | 0.821 | 0.231 | 0.231 | 0.212 | 0.827 | 0.636 | 0.229 | 0.193 | 0.179
6 | COR-L23 | 0.253 | 0.234 | 0.142 | 0.112 | 0.0947 | 0.739 | 0.661 | 0.517 | 0.133 | 0.13 | 0.848 | 0.823 | 0.606 | 0.243 | 0.128 | 1.02 | 0.846 | 0.484 | 0.203 | 0.123
7 | COR-L 105 | 0.368 | 0.417 | 0.356 | 0.33 | 0.37 | 0.59 | 0.66 | 0.546 | 0.248 | 0.267 | 0.937 | 1.11 | 0.919 | 0.662 | 0.271 | 0.863 | 0.952 | 0.765 | 0.305 | 0.303
8 | Calu-6 | – | – | – | – | – | – | – | – | – | – | 0.855 | 0.599 | 0.228 | 0.155 | 0.137 | 0.863 | 0.669 | 0.319 | 0.196 | 0.186
9 | ChaGo-K-1 | 0.817 | 0.686 | 0.219 | 0.203 | 0.166 | 0.423 | 0.537 | 0.349 | 0.138 | 0.15 | 0.922 | 0.845 | 0.237 | 0.21 | 0.192 | 0.84 | 0.855 | 0.348 | 0.245 | 0.223
10 | EBC-1 | – | – | – | – | – | – | – | – | – | – | 0.109 | 0.103 | 0.08 | 0.0764 | 0.0821 | 0.875 | 0.806 | 0.373 | 0.183 | 0.162
11 | EKVX | 0.386 | 0.431 | 0.27 | 0.183 | 0.176 | 0.654 | 0.631 | 0.251 | 0.158 | 0.136 | 0.954 | 0.812 | 0.194 | 0.195 | 0.202 | 0.907 | 0.85 | 0.43 | 0.231 | 0.186
12 | EMC-BAC-2 | 0.51 | 0.416 | 0.4 | 0.382 | 0.268 | 0.334 | 0.29 | 0.231 | 0.217 | 0.178 | 0.922 | 0.838 | 0.318 | 0.252 | 0.203 | 0.681 | 0.625 | 0.455 | 0.299 | 0.259
13 | EPLC-272H | 0.32 | 0.318 | 0.303 | 0.236 | 0.238 | 0.275 | 0.282 | 0.256 | 0.131 | 0.124 | 0.733 | 0.554 | 0.152 | 0.0794 | 0.133 | 0.834 | 0.758 | 0.646 | 0.127 | 0.139
14 | H3255 | 0.313 | 0.314 | 0.312 | 0.278 | 0.249 | 0.589 | 0.575 | 0.444 | 0.269 | 0.271 | 0.823 | 0.821 | 0.573 | 0.219 | 0.177 | 0.94 | 0.859 | 0.586 | 0.251 | 0.205
15 | HARA | 0.288 | 0.242 | 0.243 | 0.161 | 0.147 | 0.409 | 0.423 | 0.369 | 0.113 | 0.0564 | 0.864 | 0.663 | 0.316 | 0.148 | 0.101 | 0.897 | 0.94 | 0.656 | 0.24 | 0.185
16 | HCC-15 | 0.661 | 0.465 | 0.296 | 0.213 | 0.146 | 0.578 | 0.504 | 0.227 | 0.118 | 0.12 | 0.999 | 0.627 | 0.184 | 0.139 | 0.129 | 0.862 | 0.723 | 0.513 | 0.138 | 0.138
17 | HCC-44 | 0.949 | 0.85 | 0.636 | 0.616 | 0.338 | 0.465 | 0.313 | 0.368 | 0.166 | 0.186 | – | – | – | – | – | 0.933 | 0.928 | 0.816 | 0.275 | 0.212
